Test results published in ChEMBL document CHEMBL5500324, “The potential of marine-derived piperazine alkaloids: Sources, structures and bioactivities” (Eur J Med Chem, 2024).
Values after ≈ are worked out from the molar mass of the structure shown. Values belong to the compound of their own block, whether it stands above or below them.

Experiments:
HCT-116 = assay: Cytotoxicity against human HCT-116 cells assessed as inhibition of cell growth incubated for 72 hrs by SRB assay; assay type: functional, cell-based; conditions: HCT-116, 72 h
P388 [1] = assay: Cytotoxicity against mouse P388 cells assessed as reduction in cell viability by SRB assay; assay type: functional, cell-based
MKN-1 [2] = assay: Cytotoxicity against human MKN-1 cells assessed as reduction in cell viability; assay type: functional, cell-based
MKN-1 [3] = assay: Antiproliferative activity against human MKN-1 cells assessed as inhibition of cell proliferation by CCK8 assay; assay type: functional, cell-based
HeLa [4] = assay: Cytotoxicity against human HeLa cells assessed as reduction in cell viability by MTT assay; assay type: functional, cell-based
HeLa [5] = assay: Cytotoxicity against human HeLa cells assessed as reduction in cell growth measured after 72 hrs by MTT assay; assay type: functional, cell-based
K562 = assay: Cytotoxicity against human K562 cells assessed as reduction in cell viability by MTT assay; assay type: functional, cell-based
MKN-1 [6] = assay: Antiproliferative activity against human MKN-1 cells assessed as reduction in cell viability measured for 48 hrs by CCK-8 assay; assay type: functional, cell-based; conditions: MKN-1, 48 h
P388 [7] = assay: Cytotoxicity against mouse P388 cells assessed as inhibition of cell growth incubated for 72 hrs by MTT assay; assay type: functional, cell-based; conditions: P388, 72 h
HL-60 [8] = assay: Cytotoxicity against human HL-60 cells assessed as reduction in cell growth measured for 72 hrs by MTT assay; assay type: functional, cell-based; conditions: HL-60, 72 h
L1210 = assay: Cytotoxicity against mouse L1210 cells assessed as reduction in cell growth measured after 72 hrs by MTT assay; assay type: functional, cell-based; conditions: L1210, 72 h
P388 [9] = assay: Cytotoxicity against mouse P388 cells assessed as inhibition of cell growth; assay type: functional, cell-based
A549 [10] = assay: Cytotoxicity against human A549 cells assessed as inhibition of cell growth; assay type: functional, cell-based
HT-29 [11] = assay: Cytotoxicity against human HT-29 cells assessed as inhibition of cell growth; assay type: functional, cell-based
SK-MEL-28 = assay: Cytotoxicity against human SK-MEL-28 cells assessed as inhibition of cell growth; assay type: functional, cell-based
A549 [12] = assay: Cytotoxicity against human A549 cells assessed as reduction in cell viability measured after 48 hrs by MTT assay; assay type: functional, cell-based; conditions: A549, 48 h
HepG2 [13] = assay: Cytotoxicity against human HepG2 cells assessed as reduction in cell growth incubated for 48 hrs by CCK-8 assay; assay type: functional, cell-based; conditions: HepG2, 48 h
MDA-MB-231 [14] = assay: Cytotoxicity against human MDA-MB-231 cells assessed as reduction in cell growth incubated for 48 hrs by CCK-8 assay; assay type: functional, cell-based; conditions: MDA-MB-231, 48 h
A549 [15] = assay: Antiproliferative activity against human A549 cells assessed as reduction in cell viability incubated for 72 hrs by SRB assay; assay type: functional, cell-based; conditions: A549, 72 h
HT-29 [16] = assay: Antiproliferative activity against human HT-29 cells assessed as reduction in cell viability incubated for 72 hrs by SRB assay; assay type: functional, cell-based; conditions: HT-29, 72 h
MDA-MB-231 [17] = assay: Antiproliferative activity against human MDA-MB-231 cells assessed as reduction in cell viability incubated for 72 hrs by SRB assay; assay type: functional, cell-based; conditions: MDA-MB-231, 72 h
A549 [18] = assay: Cytotoxicity against human A549 cells assessed as inhibition of cell growth incubated for 48 hrs by MTT assay; assay type: functional, cell-based; conditions: A549, 48 h
HL-60 [19] = assay: Cytotoxicity against human HL-60 cells assessed as reduction in cell viability; assay type: functional, cell-based
[20] = Cytotoxicity against human A2780cis cells assessed as inhibition of cell growth incubated for 72 hrs by SRB assay; assay type: functional, cell-based
A549 [21] = assay: Cytotoxicity against human A549 cells assessed as reduction in cell growth incubated for 72 hrs by SRB assay; assay type: functional, cell-based; conditions: A549, 72 h
Bel-7402 = assay: Cytotoxicity against human Bel-7402 cells assessed as reduction in cell growth incubated for 72 hrs by SRB assay; assay type: functional, cell-based; conditions: Bel-7402, 72 h
HL-60 [22] = assay: Cytotoxicity against human HL-60 cells assessed as reduction in cell growth incubated for 72 hrs by SRB assay; assay type: functional, cell-based; conditions: HL-60, 72 h
P388 [23] = assay: Cytotoxicity against mouse P388 cells assessed as reduction in cell growth; assay type: functional; conditions: read-out: ED50 (the source's name)
NCI-H460 = assay: Cytotoxicity against human NCI-H460 cells assessed as reduction in cell growth by MTT assay; assay type: functional, cell-based
HepG2 [24] = assay: Cytotoxicity against human HepG2 cells assessed as reduction in cell growth by MTT assay; assay type: functional, cell-based
MCF7 = assay: Cytotoxicity against human MCF7 cells assessed as reduction in cell growth incubated for 48 hrs by MTT assay; assay type: functional, cell-based; conditions: MCF7, 48 h
HL-60 [25] = assay: Cytotoxicity against human HL-60 cells assessed as reduction in cell viability measured for 24 hrs by MTT assay; assay type: functional, cell-based; conditions: HL-60, 24 h
HeLa [26] = assay: Cytotoxicity against human HeLa cells assessed as reduction in cell growth measured after 24 hrs by MTT assay; assay type: functional, cell-based
[27] = Cytotoxicity against Sf9 cells assessed as inhibition of cell growth measured after 24 hrs by MTT assay; assay type: toxicity, cell-based; conditions: Spodoptera frugiperda
HGC-27 = assay: Cytotoxicity against human HGC-27 cells assessed as reduction in cell viability; assay type: functional, cell-based
A-375 = assay: Cytotoxicity against human A-375 cells assessed as reduction in cell viability by CCK-8 assay; assay type: functional, cell-based

Compound: O=C1N[C@@](O)(Cc2ccccc2)C(=O)N2CCC[C@@H]12
IC50 (HCT-116): 23 µM

Compound: C=CC(C)(C)c1[nH]c2ccccc2c1/C=C1\NC(=O)[C@]2(C[C@H](C)C=C[C@@H]2CCc2c(O)cc(CC=C(C)C)c(O)c2C=O)NC1=O
IC50 (P388 [1]): 1.83 µM

IC50 (MKN-1 [3]): 20.7 µM
Compound: C=CC(C)(C)c1[nH]c2ccccc2c1/C=c1\[nH]c(=O)c(=C)[nH]c1=O [NEOECHINULIN B]
IC50 (MKN-1 [2]): 4.6 µM

Compound: CS[C@@H]1C(=O)N[C@](Cc2ccc(OCC=C(C)C)cc2)(SC)C(=O)N1C
IC50 (HeLa [4]): 4.2 µM

Compound: CC(C)[C@H]1C(=O)N2[C@@H]3N4c5ccccc5[C@]3(C[C@@H]3[C@@]5(C)CCCC(C)(C)[C@@H]5CC[C@]34C)C[C@H]2C(=O)N1C
IC50 (HeLa [5]): 16.7 µM

Compound: CS[C@@H]1C(=O)N(C)/C(=C/c2ccc(OCC=C(C)C)cc2)C(=O)N1C
IC50 (K562): 12.7 µM

IC50 (MKN-1 [6]): 4.6 µM
Compound: C=CC(C)(C)c1[nH]c2cc(CC=C(C)C)ccc2c1/C=C1\NC(=O)[C@H](C)NC1=O

Compound: CSC12NC(=O)C(Cc3ccc(OCC=C(C)C)cc3)(NC1=O)[C@H]1C(=O)O[C@H](C)C/C=C/C(=O)O[C@H](C)C[C@@H](O)C(=O)[C@H]12 (stereo partly specified)
IC50 (P388 [7]): 6.8 µM
IC50 (HL-60 [8]): 2.2 µM
IC50 (L1210): 11.7 µM

Compound: COc1c(C)cc2c(c1O)[C@H]1[C@@H]3[C@@H]4SCC(=O)C(=O)OC[C@@H](c5c6c(c(C)c(OC(C)=O)c54)OCO6)N3[C@@H](O)[C@@H](C2)N1C
IC50 (P388 [9]): 10 µM
IC50 (A549 [10]): 0.02 µg/mL (≈ 0.0326 µM)
IC50 (HT-29 [11]): 0.025 µg/mL (≈ 0.0408 µM)
IC50 (SK-MEL-28): 0.025 µg/mL (≈ 0.0408 µM)
IC50 (A549 [12]): 0.01 µg/mL (≈ 0.0163 µM)

Compound: COc1ccc2c(c1)NC(=O)[C@]21[C@H](C=C(C)C)N2C(=O)[C@@H]3CCCN3C(=O)[C@]2(O)[C@H]1O
IC50 (HepG2 [13]): 14.1 µM
IC50 (MDA-MB-231 [14]): 35.5 µM

IC50 (A549 [15]): 4.7 µM
IC50 (HT-29 [16]): 4.8 µM
IC50 (MDA-MB-231 [17]): 7.5 µM
Compound: CN1C[C@@H](c2c[nH]c3cc(Br)ccc23)N(C)C[C@@H]1c1c[nH]c2ccccc12
IC50 (A549 [18]): 4.1 µM

Compound: COc1ccc2c(c1)N[C@@]1(C2=O)[C@H](C=C(C)C)N2C(=O)[C@]3(O)CCCN3C(=O)[C@]2(O)[C@H]1O
IC50 (HL-60 [19]): 6 µM

Compound: O=C1N2[C@H]3C(=CC=C[C@@H]3O)C[C@]23SS[C@]12C[C@H]1[C@@H]([C@@H](O)C=C[C@@H]1O)N2C3=O
IC50 [20]: 0.661 µM

Compound: C=CC(C)(C)[C@@]12C[C@@]3(OC)C(=O)N/C(=C/c4cn(C(C)(C)CC(C)=O)cn4)C(=O)N3[C@]1(C)Nc1ccccc12
IC50 (A549 [21]): 42.5 µM
IC50 (Bel-7402): > 50 µM
IC50 (HL-60 [22]): 36.6 µM

Compound: CN1C(=O)[C@@]23SS[C@]1(C)C(=O)N2[C@H]1Nc2ccccc2[C@@]1(c1c[nH]c2ccccc12)[C@@H]3O
EC50 (P388 [23]): 2.4 µg/mL (≈ 5.17 µM)
IC50 (NCI-H460): 0.23 µM
IC50 (HepG2 [24]): 0.53 µM
IC50 (MCF7): 0.23 µM

Compound: CC1(C)C=Cc2c(ccc3c2NC(=O)C(C)(C)/C=C\N2C(=O)C4=CCCN4C(=O)[C@@H]2CC3=O)O1
IC50 (HL-60 [25]): 8.7 µM

Compound: O=C1N[C@@H](C[C@@]2(O)c3ccccc3N3C(=O)C[C@@H](c4ccccc4)N[C@H]32)C(=O)N[C@H]1Cc1ccccc1
IC50 (HeLa [26]): 8.4 µg/mL (≈ 16.9 µM)

Compound: CS[C@@]1(Cc2ccccc2)NC(=O)[C@](O)(Cc2ccccc2)NC1=O
IC50 at 24 h [27]: 0.7 µM

Compound: C=CC(C)(C)c1[nH]c2ccccc2c1/C=C1\NC(=O)[C@@H]2CCCN2C1=O
IC50 (HGC-27): 4.54 µM

Compound: CC(C)C[C@@H]1NC(=O)[C@@H]2C[C@@]3([C@@]45C[C@H]6C(=O)N[C@@H](Cc7ccccc7)C(=O)N6[C@@H]4Nc4ccccc45)c4ccccc4N[C@H]3N2C1=O
IC50 (A-375): 10.3 µM
